The record followed here is PMC10121968, “Fosgonimeton, a Novel Positive Modulator of the HGF/MET System, Promotes Neurotrophic and Procognitive Effects in Models of Dementia” (Neurotherapeutics, 2022).

Non-standard residues stand in square brackets, D forms with d. Residues, ends and D or L forms follow the SMILES beside them. *: point of attachment. Hexanoyl = CCCCCC(=O)*; Ahx = NCCCCCC(=O)O

Series [1] deals with primary rat hippocampal neurons. The series is described as follows: Neurite outgrowth assay (beta-III tubulin staining). It is filed as cell-based. The settings on record: 4 days, vs vehicle. Here is the method:
On day 0, rat hippocampal neurons from newborn pups were isolated and cultured in brain neuronal culture medium (neurobasal medium supplemented with 5% FBS, 2% B-27 supplement, and 0.003% gentamycin) at 37 °C under 5% CO2. At 1 day in vitro (DIV1), cells were transferred to a poly-D-lysine–coated 24-well plate at approximately 10,000 cells/well. Cells were then grown in […] of serum-free medium and treated with the following: 0.1% dimethyl sulfoxide (DMSO; vehicle), 10 nM dihydrotestosterone (positive control), 10 nM fosgo-AM, 1 nM fosgo-AM, 5 ng/ml HGF, or 5 ng/ml HGF + 1 nM fosgo-AM. All treatments contained a final concentration of 0.1% DMSO. For the neurite outgrowth assay, treatment media were refreshed on DIV3, and cells were processed for analysis on DIV4. For the synaptogenesis assay, treatment media were refreshed on DIV3 and DIV6, and cells were processed for analysis on DIV8. Processing for both the neurite outgrowth and the synaptogenesis assays was performed as follows: media were removed, and cells were fixed with 100% methanol for 20 min at RT before methanol was aspirated and each well was washed twice with Dulbecco’s phosphate-buffered saline (DPBS). Cells were permeabilized using 0.02% […] (ThermoFisher, Waltham, Massachusetts) in DPBS for 2 min at RT without shaking, and plates were blocked with 5% bovine serum albumin (BSA) in DPBS for 1 h at RT. Plates were then incubated overnight at 4 °C with gentle shaking with use of beta-III tubulin antibody (ab201740; Abcam, Boston, Massachusetts) to assess neurite outgrowth or with use of 1:500 rabbit anti–synaptobrevin-II antibody (Synaptic Systems, cat# 104 202, Göttingen, Germany) to assess synaptogenesis. After overnight incubation, plates were washed 3 times with DPBS and incubated for 1 h at RT with use of anti–rabbit immunoglobulin G–secondary antibody conjugated to Alexa Fluor 488 (Life Technologies, Carlsbad, California, 1:500). After 5 DPBS washes, coverslips were mounted on slides using fluorescent mounting medium (Golden Bridge International Labs, Bothell, Washington, cat# E19-s). Imaging was performed using the BX43 Olympus microscope driven by the standard “CellSens” software by Olympus. […] Ten images of single cells from a total of 2 assays were analyzed using NeuroJ plug-in for ImageJ to assess neurite outgrowth, as neurite length and the number of branches per neuron were counted for each cell. For the synaptogenesis assay, synaptic count (number of synapses) and synaptic strength (relative abundance of presynaptic vesicles per synapse as measured by synaptobrevin-II fluorescence intensity) were quantified for each cell. Data were assessed for normality (Shapiro–Wilk) and homoscedasticity (Brown-Forsythe). […]

In the next series the test system is IL-6. Put plainly: IL-6 release in LPS-challenged THP-1 macrophages (HTRF). It is filed as cell-based, human. Conditions: 1 µM, 20 min pretreatment, LPS 50 ng/mL 24 h, vs LPS + vehicle. Here is the method: (§1) To determine the effect of fosgo-AM on LPS-induced cytokine release, we sought to determine the levels of interleukin-1β (IL-1β), interleukin-6 (IL-6), and tumor necrosis factor-α (TNF-α) in LPS-challenged THP-1–differentiated macrophages in the presence and absence of fosgo-AM. THP-1 monocytes were grown at 37 °C, 5% CO2 in Roswell Park Memorial Institute (RPMI) medium + 10% FBS until approximately 80% confluent. Cells were seeded in polystyrene-treated 96-well cell culture plates at approximately 50,000 cells/well in 100-µL complete media. 100 µL Phorbol myristate acetate was then added to each well for a final concentration of 100 ng/mL. The plate was then incubated for 3 days at 37 °C, 5% CO2 to prime the monocytes into macrophages. […] For cytokine quantification, cell culture supernatant was assayed by HTRF kits to assess levels of IL-1β (Human IL-1β kit, #62HIL1BPEG, Cisbio, Codolet, France) and IL-6 (Human IL-6 kit, 62HIL06PET, Cisbio, Codolet, France), and by ELISA (Human TNF-α ELISA kit, KHC3011, ThermoFisher, Waltham, Massachusetts) to determine the levels of TNF-α. […] Fluorescence emission at 2 different wavelengths (665 nm and 620 nm) were measured on an Envision plate reader (PerkinElmer, Waltham, Massachusetts), and HTRF ratio of the acceptor and donor emission signals for each well was calculated as follows: HTRF ratio = (665 nm/620 nm) × 10,000. […]

In the next series the test system is IL-1β. The series is described as follows: IL-1β release in LPS-challenged THP-1 macrophages (HTRF). It is filed as cell-based, human. The settings on record: 1 µM, 20 min pretreatment, LPS 50 ng/mL 24 h, vs LPS + vehicle. Here is the method: as §1
For orientation: TR-FRET usually uses a lanthanide donor and a delayed reading to cut background.

A further series can be described thus: Oral bioavailability. Conditions: in vivo.

`CCCCCC(=O)N[C@@H](Cc1ccc(O)cc1)C(=O)N[C@H](C(=O)NCCCCCC(N)=O)[C@@H](C)CC` [fosgo-AM] (Hexanoyl-Tyr-Ile-[Ahx]-NH2): the “neurite length per cell” value in series [1] (1 nM fosgo-AM + 5 ng/mL HGF) is “significantly increased neurite length per cell”; in series [1] (10 nM) it was “significant increase in neurite length per cell”. Besides, the “number of neurite branches” value in series [1] (HGF ± fosgo-AM) was “did not reach statistical significance”. In addition, in the series on IL-6, the IL-6 release entry was “significant decrease”. Besides, the IL-1β release result in the series with IL-1β was “significant decrease”. The oral bioavailability entry in “Oral bioavailability” is “poor oral bioavailability”.
